Experimental data reported in patent publication US10793557B2, “Sting agonist compounds” (Merck Sharp & Dohme Corp., priority 2018, dated 2020).

Experiments:
full-length HAQ STING = biological target: T1, full-length HAQ STING (Homo sapiens, UniProt Q86WV6, G230A/H232R/R293Q/R71H); test: 3H-cGAMP filtration binding assay (HAQ STING); details: competition with tritiated cGAMP, HAQ STING membrane
T1 construct: AviTag (after GG linker) (C); HRV3C cleavage site (after GS linker) (C); HIS8 (C); made in house; host or cells: Trichoplusia ni (Hi-Five) insect cells infected with baculovirus (virus generated and amplified in Sf21 cells); used as a washed membrane preparation
How it was run: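 Hi-Five (T. ni) membranes overexpressing the STING variant (2.2 ug/ml working) preincubated with compound 60 min at RT in PBS, then [3H]cGAMP (8 nM working stock) added for 60 min at RT. Bound radioactivity captured on GF/B filters and counted by scintillation; EC50 from 4-parameter fit of control-normalized activity.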

full-length WT STING = biological target: T2, full-length WT STING (Homo sapiens, UniProt Q86WV6, H232R); test: 3H-cGAMP filtration binding assay (WT STING); details: for EC50: competition with tritiated cGAMP, WT STING membrane; for inhibition at 20 µM: at 20,000 nM compound; for inhibition at 2 µM: at 2,000 nM compound
T2 construct: AviTag (after gg linker) (C); HRV3C cleavage site (after gs linker) (C); HIS8 (C); made in house; host or cells: Trichoplusia ni (Hi-Five) insect cells infected with baculovirus (virus generated and amplified in Sf21 cells); used as a washed membrane preparation
How it was run: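 Competitive filtration binding of [3H]cGAMP (16 nM working stock) to T. ni membranes overexpressing full-length WT human STING, 60 min at RT in PBS. Bound radioactivity counted after GF/B filtration; 10-point 1:3 titration, EC50 from 4-parameter fit after control normalisation.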

[1] = system: secretion of interferon-beta from THP1 cells; test: IFN-β secretion in THP1 cell culture (5 h); assay type: cell-based; details: Homo sapiens, THP-1, 5 h, 30 uM cGAMP = 100%; for activation at 30 µM: compound at 30 μM, read-out: % Effect at 30 μM relative to 2′3′-cGAMP; for activation at 3 µM: compound at 3 uM, read-out: % Effect relative to 2′3′-cGAMP (@ 3 uM)
How it was run: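 Thawed THP1 cells (0.8×10^6/mL, RPMI with 0.5% FBS) exposed to compounds 1.5–30000 nM (0.3% DMSO) for 5 h at 37 °C. Supernatant IFN-β quantified by AlphaLISA. Percent effect normalised to 30 uM cGAMP and DMSO controls; EC50 from 4-parameter fit.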

T1 sequence (Q86WV6 with tags, fused parts or gaps R71H/G230A/H232R/R293Q): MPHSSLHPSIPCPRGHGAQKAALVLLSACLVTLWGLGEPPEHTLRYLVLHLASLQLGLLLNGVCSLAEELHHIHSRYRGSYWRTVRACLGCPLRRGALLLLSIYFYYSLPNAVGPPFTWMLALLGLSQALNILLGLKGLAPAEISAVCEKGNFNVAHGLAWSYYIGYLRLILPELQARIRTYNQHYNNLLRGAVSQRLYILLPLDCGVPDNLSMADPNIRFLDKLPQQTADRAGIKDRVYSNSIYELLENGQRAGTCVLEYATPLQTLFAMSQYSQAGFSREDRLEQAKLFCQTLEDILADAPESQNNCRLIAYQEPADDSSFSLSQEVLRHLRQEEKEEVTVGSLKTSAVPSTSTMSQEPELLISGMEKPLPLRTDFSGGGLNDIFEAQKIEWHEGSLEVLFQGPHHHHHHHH
T2 sequence (Q86WV6 with tags, fused parts or gaps H232R): as the sequence (Q86WV6 with tags, fused parts or gaps R71H/G230A/H232R/R293Q) above, with H71R, A230G, Q293R counted along it

SMILES | EC50 (full-length HAQ STING) [nM] | EC50 (full-length WT STING) [nM] | activation at 30 µM [1] [%] | inhibition at 20 µM (full-length WT STING) [%] | inhibition at 2 µM (full-length WT STING) [%] | activation at 3 µM [1] [%]
COc1cc2sc(C(=O)C[C@H](C)C(=O)O)cc2c(F)c1OCCCOc1c(OC)cc2sc(C(=O)C[C@H](C)C(=O)O)cc2c1Br [Example 123, (S)-4-(5-(3-((4-bromo-2-((S)-3-carboxybutanoyl)-6-methoxybenzo[b]thiophen-5-yl)oxy)propoxy)-4-fluoro-6-methoxybenzo[b]thiophen-2-yl)-2-methyl-4-oxobutanoic acid] | 1 | 2 | 105 | – | – | –
COc1cc2sc(C(=O)C[C@H](C)C(=O)O)cc2cc1OCCCOc1cc2cc(C(=O)C[C@H](C)C(=O)O)sc2cc1OC [Example 52, (2S,2′S)-4,4′-((propane-1,3-diylbis(oxy))bis(6-methoxybenzo[b]thiophene-5,2-diyl))bis(2-methyl-4-oxobutanoic acid)] | 2 | 4 | 53 | – | – | –
COc1cc2sc(C(=O)CCC(=O)O)cc2cc1OCCOc1ccc2sc(C(=O)CCC(=O)O)cc2c1 [Example 11, 4-(5-(2-((2-(3-carboxypropanoyl)-6-methoxybenzo [b]thiophen-5-yl)oxy)ethoxy)benzo[b]thiophen-2-yl)-4-oxobutanoic acid] | 1760 | 4560 | 7 | – | – | –
COc1cc2sc(C(=O)C[C@H](C)C(=O)O)cc2cc1OCCCOc1c(OC)cc2sc(C(=O)[C@@H]3C[C@H]3C(=O)O)cc2c1F [Example 89, trans-2-(5-(3-((2-((S)-3-carboxybutanoyl)-6-methoxybenzo[b]thiophen-5-yl)oxy)propoxy)-4-fluoro-6-methoxybenzo[b]thiophene-2-carbonyl)cyclopropane carboxylic acid] | 2 | 94 | 112 | – | – | –
COc1cc2sc(C(=O)C[C@H](C)C(=O)O)cc2cc1CCCCc1cc2cc(C(=O)C[C@H](C)C(=O)O)sc2cc1OC [Example 1, (2S,2′S)-4,4′-[butane-1,4-diylbis(6-methoxy-1-benzothiene-5,2-diyl)]bis(2-methyl-4-oxobutanoic acid)] | 6 | 117 | 26 | – | – | –
COc1cc2sc(C(=O)CCC(=O)O)cc2cc1CCCOc1nc2cc(C(=O)CCC(=O)O)sc2cc1OC [Example 10, 4-(5-(3-(2-(3-carboxypropanoyl)-6-methoxybenzo [b]thiophen-5-yl)propoxy)-6-methoxythieno[3,2-b]pyridin-2-yl)-4-oxobutanoic acid] | 123 | 421 | 134 | – | – | –
COc1cc2sc(C(=O)CCC(=O)O)cc2c(F)c1OCCCCCOc1c(OC)cc2sc(C(=O)[C@@H]3CC[C@H]3C(=O)O)cc2c1F (stereo in doubt) [Example 119, 2-(5-((5-((2-(3-carboxypropanoyl)-4-fluoro-6-methoxybenzo[b]thiophen-5-yl)oxy)pentyl)oxy)-4-fluoro-6-methoxybenzo[b]thiophene-2-carbonyl)cyclo-butanecarboxylic acid] | 1800 | – | 13 | 32 | – | –
COc1cc2sc(CC[C@H](C)C(=O)O)cc2cc1OCCCOc1c(O)cc2sc(C(=O)C[C@H](C)C(=O)O)cc2c1Cl [Example 184, (S)-4-(5-(3-((2-((S)-3-carboxybutyl)-6-methoxybenzo[b]thiophen-5-yl)oxy)propoxy)-4-chloro-6-hydroxybenzo[b]thiophen-2-yl)-2-methyl-4-oxobutanoic acid] | 353 | – | – | – | 29 | 10
COc1cc2sc(C(=O)CCC(=O)O)cc2c(F)c1OCCCOc1c(OC)cc2sc(C(=O)CCC(=O)O)cc2c1F [Example 62, 4,4′-((propane-1,3-diylbis(oxy))bis(4-fluoro-6-methoxybenzo[b]thiophene-5,2-diyl))bis(4-oxobutanoic acid)] | 2 | 2 | 106 | – | – | –
COc1cc2sc(C(=O)C[C@H](C)C(=O)O)cc2c(F)c1CCCOc1c(OC)cc2sc(C(=O)[C@@H]3CC3C(=O)O)cc2c1F (stereo partly drawn) [Example 106, trans-2-(5-(3-(2-((S)-3-carboxybutanoyl)-4-fluoro-6-methoxybenzo[b]thiophen-5-yl)propoxy)-4-fluoro-6-methoxybenzo[b]thiophene-2-carbonyl)cyclopropane carboxylic acid] | 10 | 251 | 74 | – | – | –
COc1cc2sc(C(=O)CCC(=O)O)nc2cc1OCCc1nc2cc(C(=O)CCC(=O)O)sc2cc1OC [Example 9, 4-(5-(2-((2-(3-carboxypropanoyl)-6-methoxybenzo[d]thiazol-5-yl)oxy)ethyl)-6-methoxythieno[3,2-b]pyridin-2-yl)-4-oxobutanoic acid] | 116 | 322 | 48 | – | – | –
COc1cc2cc(C(=O)C[C@H](C)C(=O)O)sc2cc1OCCCOc1ccc2cc(C(=O)CCC(=O)O)sc2c1 [Example 45, (S)-4-(6-(3-((2-(3-carboxypropanoyl)benzo[b]thiophen-6-yl)oxy)propoxy)-5-methoxybenzo[b]thiophen-2-yl)-2-methyl-4-oxobutanoic acid] | 4330 | 14800 | 8 | – | – | –
COc1cc2sc(C(=O)CCC(=O)O)cc2nc1CCOc1nc2cc(C(=O)CCC(=O)O)sc2cc1OC [Example 8, 4-(5-(2-(2-(3-carboxypropanoyl)-6-methoxythieno[3,2-b]pyridin-5-yl)ethoxy)-6-methoxythieno[3,2-b]pyridin-2-yl)-4-oxobutanoic acid] | 12 | 76 | 99 | – | – | –
Cc1cc2sc(C(=O)CCC(=O)O)cc2cc1CCCc1cc2cc(C(=O)CCC(=O)O)sc2cc1C [Example 28, 4,4′-(propane-1,3-diylbis(6-methylbenzo[b]thiophene-5,2-diyl))bis(4-oxobutanoic acid)] | 46 | 112 | 116 | – | – | –
CNc1cc2sc(C(=O)C[C@H](C)C(=O)O)cc2cc1OCCCOc1c(OC)cc2sc(C(=O)C[C@H](C)C(=O)O)cc2c1F [Example 157, (S)-4-(5-(3-((2-((S)-3-carboxybutanoyl)-4-fluoro-6-methoxybenzo[b]thiophen-5-yl)oxy)propoxy)-6-(methylamino)benzo[b]thiophen-2-yl)-2-methyl-4-oxobutanoic acid] | 1 | 1 | – | – | – | 63
COc1cc2sc(CC[C@H](C)C(=O)O)cc2cc1OCCCOc1c(OC)cc2sc(C(=O)C[C@H](C)C(=O)O)cc2c1Cl [Example 145, (S)-4-(5-(3-((2-((S)-3-carboxybutyl)-6-methoxybenzo[b]thiophen-5-yl)oxy)propoxy)-4-chloro-6-methoxybenzo[b]thiophen-2-yl)-2-methyl-4-oxobutanoic acid] | 143 | – | – | – | 47 | 59
COc1cc2sc(C(=O)C[C@H](C)C(=O)O)cc2cc1OCCCCOc1cc2cc(C(=O)C[C@H](C)C(=O)O)sc2cc1OC [Example 92, (2S,2′S)-4,4′-(5,5′-(butane-1,4-diylbis(oxy))bis(6-methoxybenzo[b]thiophene-5,2-diyl))bis(2-methyl-4-oxobutanoic acid)] | 3 | 7 | 62 | – | – | –
COc1cc2sc(C(=O)CCC(=O)O)cc2cc1OCCOc1nc2cc(C(=O)C[C@H](C)C(=O)O)sc2cc1OC [Example 17, (S)-4-(5-(2-((2-(3-carboxypropanoyl)-6-methoxybenzo [b]thiophen-5-yl)oxy)ethoxy)-6-methoxythieno[3,2-b]pyridin-2-yl)-2-methyl-4-oxobutanoic acid] | 52 | 299 | 38 | – | – | –
COc1cc2sc(C(=O)C[C@H](C)C(=O)O)cc2c(F)c1OCCCCCOc1c(OC)cc2sc(C(=O)[C@@H]3CC[C@H]3C(=O)O)cc2c1F [Example 121, trans-2-(5-((5-((2-((S)-3-carboxybutanoyl)-4-fluoro-6-methoxybenzo[b]thiophen-5-yl)oxy)pentyl)oxy)-4-fluoro-6-methoxybenzo[b]thiophene-2-carbonyl)cyclobutane carboxylic acid] | 1550 | – | 26 | 43 | – | –
COc1cc2sc(C(=O)C[C@H](C)C(=O)O)cc2cc1OCCCOc1nc2cc(C(=O)C[C@H](C)C(=O)O)sc2cc1OC [Example 58, (S)-4-(5-(3-((2-((S)-3-carboxybutanoyl)-6-methoxybenzo[b]thiophen-5-yl)oxy)propoxy)-6-methoxythieno[3,2-b]pyridin-2-yl)-2-methyl-4-oxobutanoic acid] | 1 | 1 | 46 | – | – | –
